What was measured:
[1] = target: Cyclin-dependent kinase 7 (Homo sapiens, UniProt P50613); test: Affinity On-target Cellular interaction: (Radioactive in vitro kinase assays (from cellular wild-type CDK7 immunoprecipitated in HeLa cells)) EUB0001635a CDK7; format: cell-based; parameters: mode of action Covalent inhibitor, recommended concentration 1 uM
[2] = target: Nucleosome-remodeling factor subunit BPTF (Homo sapiens, UniProt Q12830); test: Affinity On-target Cellular interaction: (NanoBRET assay (NL-BPTF BD in HEK293 cells)) EUB0000233b BPTF; format: cell-based; parameters: mode of action Inhibitor, recommended concentration 1 uM
[3] = target: Chromatin remodeling regulator CECR2 (Homo sapiens, UniProt Q9BXF3); test: Affinity On-target Cellular interaction: (NanoBRET assay (NL-FL […] in HEK293 cells)) EUB0000233b CECR2; format: cell-based; parameters: mode of action Inhibitor, recommended concentration 1 uM
[4] = target: Cyclin-G-associated kinase (Homo sapiens, UniProt O14976); test: Affinity On-target Cellular interaction: (NanoBRET assay (HEK293T cells)) EUB0000229b GAK; format: cell-based, HEK-293T; parameters: mode of action Negative control for SGC-GAK-1, recommended concentration 1 uM
[5] = target: Calcium/calmodulin-dependent protein kinase type 1D (Homo sapiens, UniProt Q8IU85); test: Affinity On-target Cellular interaction: (NanoBRET assay (in HEK293T cells)) EUB0000878a CAMK1D; format: cell-based, HEK-293T; parameters: mode of action Inhibitor, recommended concentration 100 nM
[6] = target: Dual specificity tyrosine-phosphorylation-regulated kinase 1A (Homo sapiens, UniProt Q13627); test: Affinity On-target Cellular interaction: (NanoBRET assay (in HEK293T cells)) EUB0000008b DYRK1A; format: cell-based, HEK-293T; parameters: mode of action Inhibitor, recommended concentration 1 uM
[7] = target: Dual specificity protein kinase CLK4 (Homo sapiens, UniProt Q9HAZ1); test: Affinity On-target Cellular interaction: (NanoBRET assay (in HEK293T cells)) EUB0000008b CLK4; format: cell-based, HEK-293T; parameters: mode of action Inhibitor, recommended concentration 1 uM
[8] = target: Dual specificity tyrosine-phosphorylation-regulated kinase 2 (Homo sapiens, UniProt Q92630); test: Affinity On-target Cellular interaction: (NanoBRET assay (in HEK293T cells)) EUB0000008b DYRK2; format: cell-based, HEK-293T; parameters: mode of action Inhibitor, recommended concentration 1 uM
[9] = target: Dual specificity protein kinase CLK2 (Homo sapiens, UniProt P49760); test: Affinity On-target Cellular interaction: (NanoBRET assay (HEK293T cells)) EUB0001049a CLK2; format: cell-based, HEK-293T; parameters: mode of action Negative control for SGC-CLK-1 (UNC-CAF-170 ), recommended concentration 1 uM
[10] = target: Dual specificity protein kinase CLK1 (Homo sapiens, UniProt P49759); test: Affinity On-target Cellular interaction: (NanoBRET assay (HEK293T cells)) EUB0001049a CLK1; format: cell-based, HEK-293T; parameters: mode of action Negative control for SGC-CLK-1 (UNC-CAF-170 ), recommended concentration 1 uM
[11] = target: Histone-arginine methyltransferase CARM1 (Homo sapiens, UniProt Q86X55); test: Affinity On-target Cellular interaction: (Western Blot (dimethylation of BAF155, BAF155me2a/BAF155, in HEK293T cells)) EUB0000255b CARM1; format: cell-based, HEK-293T; parameters: mode of action Negative control for TP-064, recommended concentration 1 uM
SRSF protein kinase 1 = SRSF protein kinase 1 (Homo sapiens, UniProt Q96SB4)
SRSF protein kinase 2 = SRSF protein kinase 2 (Homo sapiens, UniProt P78362)
[12] = target: Histone-lysine N-methyltransferase NSD3 (Homo sapiens, UniProt Q9BZ95); test: Affinity On-target Cellular interaction: (NanoBRET assay (Nluc-NSD3-PWWP1 fusion protein in U2OS cells)) EUB0000270b NSD3; format: cell-based; parameters: mode of action Negative control for BI-9321, recommended concentration 1 uM
[13] = target: Serine/threonine-protein kinase 17A (Homo sapiens, UniProt Q9UEE5)
[14] = target: T1, Casein kinase I isoform delta (Homo sapiens, UniProt P48730); test: Affinity On-target Cellular interaction: (NanoBRET asssay (HEK293T cells)) EUB0001201a CSNK1D; format: cell-based, HEK-293T; parameters: mode of action Negative control for MU1742, recommended concentration 1 uM
[15] = target: T2, Casein kinase I isoform epsilon (Homo sapiens, UniProt P49674); test: Affinity On-target Cellular interaction: (NanoBRET asssay (HEK293T cells)) EUB0001201a CSNK1E; format: cell-based, HEK-293T; parameters: mode of action Negative control for MU1742, recommended concentration 1 uM
[16] = target: Serine/threonine-protein kinase SIK2 (Homo sapiens, UniProt Q9H0K1); test: Affinity On-target Cellular interaction: (NanoBRET assay (HEK293T cells)) EUB0001479a SIK2; format: cell-based, HEK-293T; parameters: mode of action Negative control for MRIA9, recommended concentration 1 uM
[17] = target: Serine/threonine-protein kinase SIK3 (Homo sapiens, UniProt Q9Y2K2); test: Affinity On-target Cellular interaction: (NanoBRET assay (HEK293T cells)) EUB0001479a SIK3; format: cell-based, HEK-293T; parameters: mode of action Negative control for MRIA9, recommended concentration 1 uM
[18] = target: Serine/threonine-protein kinase SIK1 (Homo sapiens, UniProt P57059); test: Affinity On-target Cellular interaction: (NanoBRET assay (HEK293T cells)) EUB0001479a SIK1; format: cell-based, HEK-293T; parameters: mode of action Negative control for MRIA9, recommended concentration 1 uM
[19] = target: T1, Casein kinase I isoform delta; test: Affinity On-target Cellular interaction: (NanoBRET asssay (HEK293T cells)) EUB0001205a CSNK1D; format: cell-based, HEK-293T; parameters: mode of action Inhibitor, recommended concentration 1 uM
[20] = target: T2, Casein kinase I isoform epsilon; test: Affinity On-target Cellular interaction: (NanoBRET asssay (HEK293T cells)) EUB0001205a CSNK1E; format: cell-based, HEK-293T; parameters: mode of action Inhibitor, recommended concentration 1 uM
[21] = target: Casein kinase I isoform alpha (Homo sapiens, UniProt P48729); test: Affinity On-target Cellular interaction: (NanoBRET asssay (HEK293T cells)) EUB0001205a CSNK1A1; format: cell-based, HEK-293T; parameters: mode of action Inhibitor, recommended concentration 1 uM
[22] = target: T3, Inhibitor of nuclear factor kappa-B kinase subunit beta (Homo sapiens, UniProt O14920); test: Affinity On-target Cellular interaction: (NanoBRET assay (HEK293T cells)) EUB0001576a IKBKB; format: cell-based, HEK-293T; parameters: mode of action Negative control for BI 605906, recommended concentration 1 uM
[23] = target: T3, Inhibitor of nuclear factor kappa-B kinase subunit beta; test: Affinity On-target Cellular interaction: (Cellular assay (inhibition of phospho-IKBKB in HeLa cells)) EUB0001492b IKBKB; format: cell-based; parameters: mode of action Inhibitor, recommended concentration 1 uM
[24] = target: Receptor tyrosine-protein kinase erbB-2 (Homo sapiens, UniProt P04626); test: Affinity On-target Cellular interaction: (Western Blot (EGF-induced autophosphorylation of the chimera EGFR extracellular domain and erbB2 intracellular domain in NIH 3T3 cells)) EUB0000595a ERBB2; format: cell-based; parameters: mode of action Inhibitor, recommended concentration 1 uM; settings: nih3t3
[25] = target: RAC-beta serine/threonine-protein kinase (Homo sapiens, UniProt P31751); test: Affinity On-target Cellular interaction: (NanoBRET assay (HEK293T cells)) EUB0001563a AKT2; format: cell-based; parameters: mode of action Negative control for Borussertib, recommended concentration 1 uM; settings: hek-293t
[26] = target: RAC-alpha serine/threonine-protein kinase (Homo sapiens, UniProt P31749); test: Affinity On-target Cellular interaction: (NanoBRET assay (HEK293T cells)) EUB0001563a AKT1; format: cell-based; parameters: mode of action Negative control for Borussertib, recommended concentration 1 uM; settings: hek-293t

T1 sequence (P48730 whole entry, canonical isoform): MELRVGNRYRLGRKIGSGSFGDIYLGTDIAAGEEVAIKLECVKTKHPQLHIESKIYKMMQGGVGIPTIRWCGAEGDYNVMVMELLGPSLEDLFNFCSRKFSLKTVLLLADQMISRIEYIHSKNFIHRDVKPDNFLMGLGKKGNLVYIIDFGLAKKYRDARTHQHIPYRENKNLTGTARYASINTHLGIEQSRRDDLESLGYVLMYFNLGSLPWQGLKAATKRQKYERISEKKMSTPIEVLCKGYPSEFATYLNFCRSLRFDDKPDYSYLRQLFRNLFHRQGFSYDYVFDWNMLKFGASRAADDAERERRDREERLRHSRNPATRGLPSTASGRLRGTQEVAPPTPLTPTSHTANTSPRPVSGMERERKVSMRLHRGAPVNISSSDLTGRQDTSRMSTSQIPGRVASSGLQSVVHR
T3 sequence (O14920 whole entry): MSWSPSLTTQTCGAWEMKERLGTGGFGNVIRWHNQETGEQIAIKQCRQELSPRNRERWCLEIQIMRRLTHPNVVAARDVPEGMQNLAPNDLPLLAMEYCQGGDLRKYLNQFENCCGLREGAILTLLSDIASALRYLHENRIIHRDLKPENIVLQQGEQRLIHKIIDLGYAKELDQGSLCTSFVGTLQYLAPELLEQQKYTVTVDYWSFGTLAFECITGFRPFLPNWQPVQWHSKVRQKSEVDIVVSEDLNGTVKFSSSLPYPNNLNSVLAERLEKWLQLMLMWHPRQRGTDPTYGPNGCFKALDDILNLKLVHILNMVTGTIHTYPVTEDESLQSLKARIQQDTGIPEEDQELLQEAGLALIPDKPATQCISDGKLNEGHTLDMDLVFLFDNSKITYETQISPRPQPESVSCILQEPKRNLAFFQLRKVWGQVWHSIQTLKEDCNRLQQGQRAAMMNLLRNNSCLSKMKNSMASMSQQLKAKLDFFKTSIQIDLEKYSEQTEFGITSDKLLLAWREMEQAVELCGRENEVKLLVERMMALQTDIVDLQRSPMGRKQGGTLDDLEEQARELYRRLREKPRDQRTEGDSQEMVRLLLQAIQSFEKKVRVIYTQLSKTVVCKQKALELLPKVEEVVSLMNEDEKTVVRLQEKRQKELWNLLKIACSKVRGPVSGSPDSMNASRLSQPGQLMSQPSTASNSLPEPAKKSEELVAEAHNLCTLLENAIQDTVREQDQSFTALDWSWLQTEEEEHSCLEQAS
T2 sequence (P49674 whole entry, canonical isoform): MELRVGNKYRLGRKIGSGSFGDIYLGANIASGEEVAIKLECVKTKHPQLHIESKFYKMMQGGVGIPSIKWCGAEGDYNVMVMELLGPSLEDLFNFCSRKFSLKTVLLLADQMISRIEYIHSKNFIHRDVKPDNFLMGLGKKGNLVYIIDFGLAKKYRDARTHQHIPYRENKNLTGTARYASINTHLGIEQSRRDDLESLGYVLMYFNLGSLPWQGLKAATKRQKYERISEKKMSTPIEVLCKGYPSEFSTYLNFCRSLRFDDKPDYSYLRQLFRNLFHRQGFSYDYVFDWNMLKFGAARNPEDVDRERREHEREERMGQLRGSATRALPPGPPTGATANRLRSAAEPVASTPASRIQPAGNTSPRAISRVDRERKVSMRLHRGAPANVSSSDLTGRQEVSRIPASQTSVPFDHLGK
Sequence of Dual specificity protein kinase CLK2 (P49760 whole entry): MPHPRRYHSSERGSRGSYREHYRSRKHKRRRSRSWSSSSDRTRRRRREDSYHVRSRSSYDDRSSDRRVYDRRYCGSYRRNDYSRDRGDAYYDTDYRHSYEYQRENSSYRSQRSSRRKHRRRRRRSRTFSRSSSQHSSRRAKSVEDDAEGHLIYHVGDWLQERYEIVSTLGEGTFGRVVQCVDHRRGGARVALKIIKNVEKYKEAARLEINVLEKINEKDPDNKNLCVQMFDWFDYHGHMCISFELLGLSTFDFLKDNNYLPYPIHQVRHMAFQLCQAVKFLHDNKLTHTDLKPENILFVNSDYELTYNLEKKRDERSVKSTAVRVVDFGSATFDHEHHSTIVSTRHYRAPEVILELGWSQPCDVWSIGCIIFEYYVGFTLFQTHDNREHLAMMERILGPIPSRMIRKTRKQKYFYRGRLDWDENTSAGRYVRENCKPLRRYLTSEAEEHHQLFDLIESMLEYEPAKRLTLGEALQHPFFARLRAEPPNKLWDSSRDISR
Sequence of Dual specificity tyrosine-phosphorylation-regulated kinase 2 (Q92630 whole entry): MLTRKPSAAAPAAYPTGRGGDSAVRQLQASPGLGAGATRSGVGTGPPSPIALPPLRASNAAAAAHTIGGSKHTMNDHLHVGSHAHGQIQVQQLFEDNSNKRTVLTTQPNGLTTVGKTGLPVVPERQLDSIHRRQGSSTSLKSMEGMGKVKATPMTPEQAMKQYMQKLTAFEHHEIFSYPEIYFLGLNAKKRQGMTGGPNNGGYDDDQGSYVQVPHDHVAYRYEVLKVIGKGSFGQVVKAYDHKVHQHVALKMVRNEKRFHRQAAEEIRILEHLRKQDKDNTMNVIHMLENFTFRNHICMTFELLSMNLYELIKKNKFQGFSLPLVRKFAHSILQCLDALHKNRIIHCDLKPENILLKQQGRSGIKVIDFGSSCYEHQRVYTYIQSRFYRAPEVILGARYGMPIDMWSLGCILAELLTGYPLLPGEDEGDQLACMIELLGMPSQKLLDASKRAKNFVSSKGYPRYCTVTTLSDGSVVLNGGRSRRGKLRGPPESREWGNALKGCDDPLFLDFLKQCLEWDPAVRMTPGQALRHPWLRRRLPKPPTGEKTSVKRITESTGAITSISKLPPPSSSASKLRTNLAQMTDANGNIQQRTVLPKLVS
Sequence of SRSF protein kinase 1 (Q96SB4 whole entry): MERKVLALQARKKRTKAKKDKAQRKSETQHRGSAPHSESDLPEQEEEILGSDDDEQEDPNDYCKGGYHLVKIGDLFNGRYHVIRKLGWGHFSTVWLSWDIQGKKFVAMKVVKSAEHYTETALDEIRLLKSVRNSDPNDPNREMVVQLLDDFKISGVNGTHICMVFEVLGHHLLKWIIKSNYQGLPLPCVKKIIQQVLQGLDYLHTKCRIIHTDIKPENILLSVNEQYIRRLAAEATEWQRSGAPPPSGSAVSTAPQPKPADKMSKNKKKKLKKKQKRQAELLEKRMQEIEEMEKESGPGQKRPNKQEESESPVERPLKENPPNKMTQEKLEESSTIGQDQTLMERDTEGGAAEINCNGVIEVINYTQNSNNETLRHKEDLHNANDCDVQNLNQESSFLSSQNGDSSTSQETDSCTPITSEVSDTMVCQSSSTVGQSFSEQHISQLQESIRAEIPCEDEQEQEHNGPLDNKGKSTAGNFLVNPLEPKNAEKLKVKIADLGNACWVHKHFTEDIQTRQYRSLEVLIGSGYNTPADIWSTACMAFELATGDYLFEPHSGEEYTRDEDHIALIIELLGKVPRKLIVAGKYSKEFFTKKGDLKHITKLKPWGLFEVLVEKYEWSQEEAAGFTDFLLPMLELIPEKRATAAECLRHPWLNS
Sequence of Dual specificity protein kinase CLK1 (P49759 whole entry): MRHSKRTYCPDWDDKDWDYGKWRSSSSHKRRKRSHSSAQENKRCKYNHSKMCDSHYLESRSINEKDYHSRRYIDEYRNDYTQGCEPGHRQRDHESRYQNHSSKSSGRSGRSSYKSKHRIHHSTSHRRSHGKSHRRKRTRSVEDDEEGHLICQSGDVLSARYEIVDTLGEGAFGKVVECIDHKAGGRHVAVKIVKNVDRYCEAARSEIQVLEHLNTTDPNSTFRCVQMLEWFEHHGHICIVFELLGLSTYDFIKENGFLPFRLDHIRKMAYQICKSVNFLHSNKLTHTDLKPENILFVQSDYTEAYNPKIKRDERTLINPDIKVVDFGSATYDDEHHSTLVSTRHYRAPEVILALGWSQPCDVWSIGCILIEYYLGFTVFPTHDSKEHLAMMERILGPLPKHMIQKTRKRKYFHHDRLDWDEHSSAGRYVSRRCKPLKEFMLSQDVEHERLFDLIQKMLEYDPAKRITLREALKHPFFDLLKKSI
Sequence of Serine/threonine-protein kinase SIK2 (Q9H0K1 whole entry): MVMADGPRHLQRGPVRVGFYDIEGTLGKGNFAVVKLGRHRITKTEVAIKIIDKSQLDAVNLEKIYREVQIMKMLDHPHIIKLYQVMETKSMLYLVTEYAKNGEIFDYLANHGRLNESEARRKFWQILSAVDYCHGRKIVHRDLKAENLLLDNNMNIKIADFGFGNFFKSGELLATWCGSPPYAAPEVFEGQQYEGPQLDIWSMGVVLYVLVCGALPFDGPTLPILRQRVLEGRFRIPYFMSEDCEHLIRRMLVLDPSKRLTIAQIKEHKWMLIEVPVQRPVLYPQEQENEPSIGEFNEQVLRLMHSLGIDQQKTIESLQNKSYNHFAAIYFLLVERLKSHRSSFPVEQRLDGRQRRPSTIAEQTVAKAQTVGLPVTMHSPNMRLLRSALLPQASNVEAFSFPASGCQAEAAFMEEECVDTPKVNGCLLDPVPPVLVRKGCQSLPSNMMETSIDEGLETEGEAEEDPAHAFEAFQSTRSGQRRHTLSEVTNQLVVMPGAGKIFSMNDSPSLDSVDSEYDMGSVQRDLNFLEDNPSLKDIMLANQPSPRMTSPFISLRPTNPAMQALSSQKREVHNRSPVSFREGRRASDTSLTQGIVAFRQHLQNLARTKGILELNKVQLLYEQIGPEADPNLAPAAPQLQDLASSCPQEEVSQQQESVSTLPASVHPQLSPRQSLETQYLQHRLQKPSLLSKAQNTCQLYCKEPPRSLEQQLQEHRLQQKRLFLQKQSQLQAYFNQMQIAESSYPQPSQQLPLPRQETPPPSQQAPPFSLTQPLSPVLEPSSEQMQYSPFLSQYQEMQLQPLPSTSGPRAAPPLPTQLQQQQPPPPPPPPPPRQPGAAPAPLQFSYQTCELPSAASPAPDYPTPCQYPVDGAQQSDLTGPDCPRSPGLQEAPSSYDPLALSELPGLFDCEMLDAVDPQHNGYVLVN

Work on `C=CC(=O)Nc1ccc(C(=O)Nc2n[nH]c3c2CN(C(=O)N[C@H](CN(C)C)c2ccccc2)C3(C)C)cc1` yielded an IC50 [1] of 0.0625 µM.
In the case of `CN(C)CCCOc1ccc(-c2cc(NCCCn3cccn3)nc(S(C)(=O)=O)n2)cc1`, the EC50 [2] is reported as 0.228 µM and the EC50 [3] is reported as 0.289 µM.
Work on `COc1cc(N(C)c2ccnc3ccc(C(F)(F)F)cc23)cc(OC)c1OC` yielded an IC50 [4] greater than 5 µM.
For `CC(C)c1cc(Nc2nc(N3CCC[C@H](N)C3)ncc2C(N)=O)cc(C(C)C)n1`, the IC50 [5] was 0.029 µM.
Compound `Cn1cc(-c2ccc3occ(-c4cccc(-c5ccncc5)c4)c3n2)cn1` has a Ki [6] of 6.58 µM, a Ki [7] of 0.023 µM and a Ki [8] of 1.7 µM.
`COc1cc(Nc2nc(C)cc(-c3cnn4nc(OC)ccc34)n2)cc(C(F)(F)F)c1` gave an IC50 [9] greater than 10 µM and an IC50 [10] greater than 10 µM.
`COCCN1CCC(c2cc(CN(C)C(=O)c3cccc(Oc4ccccc4)c3)ccn2)CC1` showed an IC50 [11] greater than 10 µM.
In the case of `CN(c1ncccc1CNc1ccnc(-c2cc3cc(Cl)ccc3[nH]2)n1)S(C)(=O)=O`, the IC50 (SRSF protein kinase 1) is reported as greater than 50 µM and the IC50 (SRSF protein kinase 2) is reported as greater than 50 µM.
In the case of `Cc1cc(CN)cc(C)c1-c1ncn(C)c1-c1cncn1C`, the IC50 [12] is reported as greater than 10 µM.
In the case of `CN1CCN(C(=O)c2ccc3cc2OCCOCCNc2ccn4ncc-3c4n2)CC1`, the IC50 [13] is reported as greater than 45 µM.
Compound `CCc1ccc(-c2ncn(CC3(F)CCN(C)CC3)c2-c2ccnc3[nH]ccc23)nc1` has an IC50 [14] greater than 50 µM and an IC50 [15] greater than 50 µM.
In the case of `CN(C)c1ncc2cc(-c3ccc(-c4ncccc4F)cc3Cl)c(=O)n(C[C@H]3OC[C@H](N)CO3)c2n1`, the IC50 [16] is reported as 14 µM, the IC50 [17] is reported as 14 µM and the IC50 [18] is reported as 14 µM.
With `CN1CCC(F)(Cn2cnc(-c3ccc(F)cn3)c2-c2ccnc3[nH]ccc23)CC1` the IC50 [19] was 0.047 µM, the IC50 [20] was 0.22 µM and the IC50 [21] was 3.5 µM.
With `CN(C)C(=O)c1sc2nc(N3CCC(S(C)(=O)=O)CC3)cc(C(F)(F)F)c2c1N` [BI-5026] the IC50 [22] was greater than 20 µM.
`CCC(F)(F)c1cc(N2CCC(S(C)(=O)=O)CC2)nc2sc(C(N)=O)c(N)c12` [BI-605906] was tested, and the EC50 [23] was 0.9 µM.
`COCC(=O)NC/C=C/c1ccc2ncnc(Nc3ccc(Oc4ccc(C)nc4)c(C)c3)c2c1` [CP-724714] showed an IC50 [24] of 0.032 µM.
Work on `C=CC(=O)Nc1ccc2[nH]c(=O)n(C3CCN(Cc4ccc(-c5ccc6c(c5)NC(=O)CO6)cc4)CC3)c2c1` [RL2578] yielded an IC50 [25] of 8.3 µM and an IC50 [26] of 1.9 µM.

Reference: ChEMBL document CHEMBL5445981, “Affinity On-target Cellular Literature for EUbOPEN Chemogenomic Library” (2024)
